Data reported in patent US7235539B2, “6-Hydroxyequilenins as estrogenic agents” (Wyeth, priority 2002, dated 2007).

Legend:
human ERβ = biological target: T1, human ERβ (Homo sapiens, UniProt Q92731); assay: Radioligand binding competition with [3H]-17β-estradiol, ERβ; settings: human ERβ ligand binding domain extract, read-out: ER-β IC50
T1 construct: M214–Q530 of human ERβ; Flag (C); made in house; host or cells: E. coli BL21(DE3), clarified lysate

human ERα = biological target: T2, human ERα (Homo sapiens, UniProt P03372); assay: Radioligand binding competition with [3H]-17β-estradiol, ERα; settings: human ERα ligand binding domain extract, read-out: ER-α IC50
T2 construct: amino acids M250–V595 of human ERα; His tag (N); made in house; host or cells: E. coli BL21(DE3), clarified lysate
T2 sequence (P03372 250-595): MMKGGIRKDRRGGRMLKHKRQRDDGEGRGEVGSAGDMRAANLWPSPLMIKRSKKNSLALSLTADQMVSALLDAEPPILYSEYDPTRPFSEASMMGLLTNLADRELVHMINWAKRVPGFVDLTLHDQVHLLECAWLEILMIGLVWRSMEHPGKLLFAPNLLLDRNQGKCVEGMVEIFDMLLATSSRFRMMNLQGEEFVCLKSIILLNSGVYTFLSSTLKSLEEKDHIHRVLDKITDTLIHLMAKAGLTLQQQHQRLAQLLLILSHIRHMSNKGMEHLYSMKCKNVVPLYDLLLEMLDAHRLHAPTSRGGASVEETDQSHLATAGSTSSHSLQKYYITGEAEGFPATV

[1] = test system: metallothionein-II mRNA in Saos-2 cells (via ERβ); assay: Regulation of metallothionein II mRNA in Saos-2 cells; assay type: cell-based
Description: Estrogens acting through ERβ, but not ERα can upregulate metallothionein II mRNA levels in Saos-2 cells as described by Harris [Endocrinology 142: 645–652 (2001)]. Results from this test procedure can be combined with results from the test procedure described below (ERE reporter test procedure) to generate a selectivity profile for compounds of this invention (see also WO 00/37681).

T1 sequence (Q92731 214-530): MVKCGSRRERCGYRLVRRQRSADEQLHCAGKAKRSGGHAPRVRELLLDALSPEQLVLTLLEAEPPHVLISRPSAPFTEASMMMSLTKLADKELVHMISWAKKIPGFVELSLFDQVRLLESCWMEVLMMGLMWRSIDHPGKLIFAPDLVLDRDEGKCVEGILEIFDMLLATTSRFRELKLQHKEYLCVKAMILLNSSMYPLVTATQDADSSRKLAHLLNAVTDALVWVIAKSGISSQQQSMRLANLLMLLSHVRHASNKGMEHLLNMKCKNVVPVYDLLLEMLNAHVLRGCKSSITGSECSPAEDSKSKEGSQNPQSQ

Row | SMILES | IC50 (human ERβ) | IC50 (human ERα) | Fold upregulation of metallothionein-II mRNA [1]
1 | CC12CCc3c(cc(O)c4cc(O)ccc34)C1CCC2=O (stereo not drawn) [Compound 1, 6-Hydroxyequilenin] | 123 nM | 2180 nM | 11
2 | CC12CCc3c(cc(O)c4cc(O)ccc34)C1CC[C@@H]2O (stereo partly drawn) [Compound 5, 6-Hydroxy-3,17β-dihydroequilenin] | 16 nM | 238 nM | 11
